Laboratory results reported in US5873359A, “Methods and devices for treating pulmonary vasoconstriction and asthma” (The General Hospital Corporation, priority 1994, dated 1999).

What was measured:
[1] = system: U46619-induced pulmonary vasoconstriction; assay: Inhaled NO in lambs with U46619-induced pulmonary vasoconstriction; assay type: in vivo, Suffolk lambs
From the text: Eight Suffolk lambs weighing 25-35 kg underwent a sterile thoracotomy in order to place a left atrial line, tracheostomy and femoral artery line under general endotracheal anesthesia with halothane/oxygen three days before study. After three days of recovery the lambs underwent sterile placement of a 7 French thermal dilution pulmonary artery monitoring catheter under local anesthesia.
Awake unanesthetized lambs were studied in order to avoid general anesthesia which can blunt hypoxic vasoconstriction. Lambs were placed in a Babraham cage and allowed to drink and eat ad lib. Two studies were performed 2 days apart on each of six lambs. After the study the lambs were sacrificed with an overdose of barbiturate and heir lungs were fixed, stained and examined by light microscopy for pathological changes.
On the first study day lambs breathing 60-70% oxygen were given an infusion of a potent pulmonary vasoconstrictor, the stable endoperoxide analog (5Z, 9α, 13E, 15S)-11,9-(Epoxymethano)prosta-5,13-dien-1-oic acid (U46619, The Upjohn Company, Kalamazoo, Mich.) of thromboxane at a rate of 0.4-0.8 μg/kg/min. The tracheostomy was connected to a non-rebreathing circuit consisting of a 5 liter reservoir bag and one way valves to isolate inspired from expired gas. Expired gas was scavenged and discarded. The inspired gas was a precise mixture of oxygen and nitrogen immediately diluted with NO to produce the correct inspired concentration. Using volumetrically calibrated flowmeters, varying quantities of NO were mixed with N2 to obtain the desired inspired NO concentration at an inspired oxygen concentration (Fi O2) of 0.6-0.7. The reservoir bag was emptied after each level of NO inhalation. The residence half time of NO in the gas reservoir was 15 seconds or less to minimize conversion to NO2. NO was obtained from Air Products and Chemicals, Inc., Allentown, Pa. as a mixture of 235 ppm NO in pure N2. […] Fontijin, Anal. Chem. 27:1903 (1981).
Each level of NO exposure was followed by six minutes of breathing the oxygen mixture without NO (FIG. 2). A second exposure to NO was examined for similar periods. Subsequently, a control period breathing the oxygen mixture was studied six minutes after ceasing U46619 infusion. At each three and six minute time period after administering or discontinuing NO during the study, we measured mean and phasic pulmonary artery pressure (PAP), left atrial pressure (LAP), systemic arterial pressure (SAP) and central venous pressure (CVP). All pressures were recorded on a Hewlett Packard multi-channel strip chart recorder with transducers zeroed to atmospheric pressure at the mid point of the thorax (e.g., see FIG. 3). Cardiac output (CO) was measured by thermal dilution as the average of two determinations injecting 5 ml of 0° C. Ringers lactate. Pulmonary vascular resistance (PVR) and systemic vascular resistance (SVR) were computed by standard formulae; PVR measured at each inhaled NO concentration is shown in FIG. 4. Appropriate statistical analyses were performed, and all data were expressed as mean ± standard error.

[2] = system: normal bronchial tone; assay: NO effects on normal bronchial tone; assay type: in vivo, Hartley strain guinea pigs; details: 300 ppm NO, without methacholine infusion (FIG. 8)
Procedure: Male Hartley strain guinea pigs (300-440g body wt) were anesthetized with α-chloralose (50 mg/kg) and urethane (500 mg/kg) (Drazen et al., J. Appl. Physiol. 48:613-618, 1980). A tracheostomy was performed, and the animals were intubated with a tubing adaptor (ID 1.65 mm) and ventilated with a small animal ventilator (Harvard Apparatus, a division of Ealing Scientific, Natick, Mass.) at 8 ml/kg and 60 breaths/min. A jugular vein was cannulated for intravenous administration of drugs. The chest was opened by bilateral excision of a portion of the ribs anteriorly so that the lungs were exposed to atmospheric pressure (Shore and Drazen, J. Appl. Physiol. 67:2504-2511, 1989). A positive end expiratory pressure of 3-4 cmH2 O was provided.
Guinea pigs were then placed inside a plethysmograph (Amdur and Mead, Am. J. Physiol. 192:363-368, 1958), that was connected to a large reservoir containing copper mesh to maintain the plethysmograph isothermal. Plethysmograph pressure was measured with a differential pressure transducer (Celesco, Canoga Park, Calif.); the opposite side of this transducer was connected to a similar reservoir. Pressure at the airway opening was measured from a side tap in the tracheal canula. Transpulmonary pressure was measured with a differential pressure transducer (Celesco) as the difference between airway opening pressure and the pressure inside the plethysmograph. […]

[3] = system: primary pulmonary hypertension; details: cited from earlier work
[4] = system: haemoglobin; details: Meyer 1988; cited from earlier work
[5] = regression vs NO concentration, eight lambs

What does the source list for `[N]=O` [NO, nitric oxide]?
PA pressure ([1]; 5 ppm NO (0.89 μg/kg/min)): significantly reduced the PA pressure; vasodilator response ([1]; 40 or 80 ppm NO): almost complete vasodilator response; PAP ([1]; 80 ppm NO for one hour, four lambs): pulmonary vasodilation to a normal PAP; time to nearly maximal vasodilator effect ([1]; FIG. 3): within three minutes; pulmonary hypertension after NO inhalation ([1]; after 80 ppm NO for one hour, four lambs): pulmonary hypertension recurring after NO inhalation; onset of pulmonary vasodilation ([1]; after beginning NO inhalation): within seconds; return to prior level of vasoconstriction after ceasing NO ([1]; after ceasing to inhale NO): within three to six minutes; pulmonary vasoconstriction and pulmonary hypertension ([1]; all dose levels of NO (5-80 ppm)): prompt reduction of the pulmonary vasoconstriction and pulmonary hypertension; CO [1, 5]: no significant change; SVR [1, 5]: no significant change; mean SAP [1, 5]: no significant change; vasodilator response of second exposure ([1]; second exposure to 5, 10 and 20 ppm NO): no significant reduction from the prior series of exposures; baseline bronchomotor tone [2]: decreased the baseline bronchomotor tone; PAP difference as percentage of ΔPAP ([3]; 40 ppm NO): about 6%; difference in PAP versus air ([3]; 40 ppm NO): 2.9 mm Hg; average PAP ([3]; breathing 40 ppm NO, seven patients, 59.6 mm Hg breathing air): 56.7 mm Hg; average reduction in PVR ([3]; during inhalation of NO): 9%; decrease in SAP ([3]; during inhalation of NO): No corresponding decrease in SAP; binding to haemoglobin [4]: the most rapidly binding ligand to haemoglobin so far discovered
